According to PubChem BioAssay (NCI):
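Five concentrations, 48 hours, 96-well plates. The concentration for 50% growth inhibition is given as GI50. TGI: total growth inhibition.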

Experiments:
Assay in all cases: NCI tumour cell line growth inhibition, 48 h; in the data active means GI50 below about 0.43 µM; inactive means the rest
BT-549 breast = tested on: BT-549 breast
LOX IMVI melanoma = tested on: LOX IMVI melanoma
SK-MEL-2 melanoma = tested on: SK-MEL-2 melanoma
SNB-19 CNS = tested on: SNB-19 CNS
SNB-75 CNS = tested on: SNB-75 CNS
ACHN renal = tested on: ACHN renal
SK-MEL-28 melanoma = tested on: SK-MEL-28 melanoma
CAKI-1 renal = tested on: CAKI-1 renal
MDA-MB-231 breast = tested on: MDA-MB-231 breast
A549 NSCLC = tested on: A549 NSCLC
KM12 colon = tested on: KM12 colon
HCT-15 colon = tested on: HCT-15 colon
CCRF-CEM leukemia = tested on: CCRF-CEM leukemia
UACC-62 melanoma = tested on: UACC-62 melanoma
HL-60(TB) leukemia = tested on: HL-60(TB) leukemia
UO-31 renal = tested on: UO-31 renal
MDA-MB-435 = tested on: MDA-MB-435
HT29 colon = tested on: HT29 colon
COLO 205 colon = tested on: COLO 205 colon
HOP-92 NSCLC = tested on: HOP-92 NSCLC
K-562 leukemia = tested on: K-562 leukemia
OVCAR-3 ovarian = tested on: OVCAR-3 ovarian
SF-295 CNS = tested on: SF-295 CNS
PC-3 prostate = tested on: PC-3 prostate
SF-539 CNS = tested on: SF-539 CNS
TK-10 renal = tested on: TK-10 renal
SK-MEL-5 melanoma = tested on: SK-MEL-5 melanoma
SF-268 CNS = tested on: SF-268 CNS
MOLT-4 leukemia = tested on: MOLT-4 leukemia
U251 CNS = tested on: U251 CNS
EKVX NSCLC = tested on: EKVX NSCLC
MALME-3M melanoma = tested on: MALME-3M melanoma
T-47D breast = tested on: T-47D breast
SW-620 colon = tested on: SW-620 colon
SK-OV-3 ovarian = tested on: SK-OV-3 ovarian
NCI-H460 lung = tested on: NCI-H460 lung
IGROV1 ovarian = tested on: IGROV1 ovarian
OVCAR-4 ovarian = tested on: OVCAR-4 ovarian
MCF7 breast = tested on: MCF7 breast
SN12C renal = tested on: SN12C renal
OVCAR-8 ovarian = tested on: OVCAR-8 ovarian
RPMI-8226 leukemia = tested on: RPMI-8226 leukemia
DU-145 prostate = tested on: DU-145 prostate
RXF 393 renal = tested on: RXF 393 renal
NCI-H23 lung = tested on: NCI-H23 lung

N#CC(C#N)=CN1CCN(C(=O)c2ccco2)C1=S
12.8 µM: TGI (SK-MEL-2 melanoma)
30.5 µM: TGI (CAKI-1 renal)
25.4 µM: TGI (UACC-62 melanoma)
30.1 µM: TGI (UO-31 renal)
32.7 µM: TGI (TK-10 renal)
70.5 µM: TGI (COLO 205 colon)
89.4 µM: TGI (SF-268 CNS)
54.6 µM: TGI (BT-549 breast)
6.6 µM: TGI (RXF 393 renal)
58.1 µM: TGI (HL-60(TB) leukemia)
86.5 µM: TGI (SK-OV-3 ovarian)
82 µM: TGI (SNB-19 CNS)
71.5 µM: TGI (EKVX NSCLC)
7.55 µM: TGI (SF-539 CNS)
46 µM: TGI (OVCAR-4 ovarian)
28.4 µM: TGI (MCF7 breast)
50.5 µM: TGI (ACHN renal)
47.7 µM: TGI (A549 NSCLC)
> 100 µM: TGI (LOX IMVI melanoma) | TGI (SNB-75 CNS) | TGI (SK-MEL-28 melanoma) | TGI (HCT-15 colon) | TGI (CCRF-CEM leukemia) | TGI (HT29 colon) | TGI (HOP-92 NSCLC) | TGI (K-562 leukemia) | TGI (OVCAR-3 ovarian) | TGI (SF-295 CNS) | TGI (PC-3 prostate) | TGI (MOLT-4 leukemia) | TGI (U251 CNS) | TGI (MALME-3M melanoma) | TGI (T-47D breast) | TGI (SW-620 colon) | TGI (NCI-H460 lung) | TGI (OVCAR-8 ovarian) | TGI (RPMI-8226 leukemia) | TGI (DU-145 prostate)
16.5 µM: TGI (SN12C renal)
22.5 µM: TGI (NCI-H23 lung)
38.9 µM: TGI (IGROV1 ovarian)
8.07 µM: TGI (SK-MEL-5 melanoma)
inactive: GI50 (BT-549 breast) 6.85 µM | GI50 (LOX IMVI melanoma) 3.34 µM | GI50 (SK-MEL-2 melanoma) 4.28 µM | GI50 (SNB-19 CNS) 38.7 µM | GI50 (SNB-75 CNS) 40.6 µM | GI50 (ACHN renal) 9.4 µM | GI50 (SK-MEL-28 melanoma) 12.5 µM | GI50 (CAKI-1 renal) 4.76 µM | GI50 (MDA-MB-231 breast) 2.92 µM | GI50 (A549 NSCLC) 13.5 µM | GI50 (KM12 colon) 4.12 µM | GI50 (HCT-15 colon) 5.23 µM | GI50 (CCRF-CEM leukemia) 79.7 µM | GI50 (UACC-62 melanoma) 8.81 µM | GI50 (HL-60(TB) leukemia) 19.8 µM | GI50 (UO-31 renal) 10.5 µM | GI50 (MDA-MB-435) 5.28 µM | GI50 (HT29 colon) 27.7 µM | GI50 (COLO 205 colon) 16.5 µM | GI50 (HOP-92 NSCLC) 22.4 µM | GI50 (K-562 leukemia) 6.57 µM | GI50 (OVCAR-3 ovarian) 11.2 µM | GI50 (SF-295 CNS) 31.3 µM | GI50 (PC-3 prostate) 17.3 µM | GI50 (SF-539 CNS) 2.48 µM | GI50 (TK-10 renal) 4.62 µM | GI50 (SK-MEL-5 melanoma) 2.87 µM | GI50 (SF-268 CNS) 31.4 µM | GI50 (MOLT-4 leukemia) 5.22 µM | GI50 (U251 CNS) 6.54 µM | GI50 (EKVX NSCLC) 11.9 µM | GI50 (MALME-3M melanoma) 47.8 µM | GI50 (T-47D breast) 21.2 µM | GI50 (SW-620 colon) 5.62 µM | GI50 (SK-OV-3 ovarian) 33.1 µM | GI50 (NCI-H460 lung) 3.29 µM | GI50 (IGROV1 ovarian) 6.61 µM | GI50 (OVCAR-4 ovarian) 20.1 µM | GI50 (MCF7 breast) 3.45 µM | GI50 (SN12C renal) 3.12 µM | GI50 (OVCAR-8 ovarian) 14.6 µM | GI50 (RPMI-8226 leukemia) 4.53 µM | GI50 (DU-145 prostate) 5.46 µM | GI50 (RXF 393 renal) 2.63 µM | GI50 (NCI-H23 lung) 5.78 µM
32.2 µM: TGI (KM12 colon)
40 µM: TGI (MDA-MB-435)
17.3 µM: TGI (MDA-MB-231 breast)
